# Experiments:
# APPSwe/PS1 mice = experiment: Aβ plaque loading in brain, stereological analysis; assay type: in vivo; conditions: 50 μg/mouse i.p. weekly for 12 weeks
# Experimental: Five groups of APPSwe/PS1 mice have received one a week for a period of 12 weeks the following treatment: • Gr1: APPSwe/PS1+NaCl 0.9% n(=20), i.p. injections • Gr4: APPSwe/PS1+CRX527 (20 μg/mouse, 130 μl, n=10), i.p. injections • Gr5: APPSwe/PS1+CRX601 (20 μg/mouse, 130 μl, n=10), i.p. injections • Gr6: APPSwe/PS1+3D MPL (50 μg/mouse, 130 μl, n=10), i.p. injections • Gr8 APPSwe/PS1+AS15 • Gr9: APPSwe/PS1+AS01B ( 1/10th of human dose μg/kg, 50 μl, n=10), i.m. injections
# Mice were anesthetized under isofluorane and blood was drawn via cardiac puncture before head decapitation. Brains were rapidly removed from the skulls and placed in cold phosphate buffered saline (PBS) solution. Then hemibrains were separated and olfactory bulbs and cerebellum were removed. One hemibrain was rapidly frozen in liquid nitrogen and stored at −80° C. for protein analysis. The other one was postfixed for 2-4 days in 4% paraformaldehyde (PFA), pH 9.5 at 4° C., and then placed in a PFA solution containing 10% sucrose overnight at 4° C. […]
# An observer who was blind to the treatment status of the material did all quantitative histological analyses. […] Briefly, the contours of the prefrontal cortex, the hippocampus and the cortex areas were traced as virtual overlay on the […] images and areas were calculated. The area occupied by all Aβ-labeled plaques was determined. […]
# [1] = Innate cytokine/chemokine profile in sera after injection; assay type: in vivo, C57BL/6 mice
# Experimental: FIG. 17: Innate cytokines profile from sera after either LPS or 3DMPL injected mice using the intraperitoneal route at 2 hr or 6 hr post injection time point. Results are shown in relative units (RU or pg/ml) of various cytokines/chemokines in sera for PBS and LPS or 3DMPL injected mice after 2 hours or 6 hours. N=5 mice per group. […] Tukey post-hoc test used for the comparison following ANOVA-1 analysis.
# FIG. 18: Innate cytokines profile from sera after either AS01B, AS03 or AS04D injected mice using the intramuscular at 2 hr or 6 hr post injection time point. Results are shown in relative units (RU or pg/ml) of various cytokines/chemokines in sera for PBS and LPS or 3D MPL injected mice after 2 hours or 6 hours. N=5 mice per group. The bars represent mean±SEM.
# We measured several cytokines and chemokines in the sera of C57BL/6 mice 2 and 6 h following a single intraperitoneal injection of either MPL or LPS.
# Innate cytokines profile from sera after either AS01B, AS03 or AS04D was injected into mice using the intramuscular route, samples taken at 2 hr or 6 hr post injection time point. Results are shown in relative units (RU or pg/ml) of various cytokines/chemokines in sera for PBS and LPS or MPL injected mice after 2 hours or 6 hours. N=5 mice per group. The bars represent mean±SEM.
# [2] = system: peripheral blood monocytes; experiment: Ex vivo uptake of fluorescent Aβ42 by peripheral blood monocytes from adjuvanted mice; assay type: in vivo, C57BL/6 mice; conditions: i.m. injection; AS01B mouse full dose, CRX601 2 μg dose
# From the text: To begin to examine the function of the increase of monocytes in the peripheral blood, we examined the capacity of those monocytes to uptake Aβ42 in a test tube. In order to measure that phagocytic activity, we have used fluorescent HiLyteFluo Aβ42 (Anaspec Inc).
# We examined the capacity of monocytes to uptake Aβ42 in a test tube. In order to measure that phagocytic activity we have used fluorescent HiLyteFluo Aβ42 (Anaspec Inc).
# Preparation of cells: Peripheral blood was drawn from C57BL/6 mice via cardiac puncture with lithium-heparin as anticoagulant, 24-Hour after injection of the adjuvants used herein. Red blood cell lysis was performed twice on pooled blood with Ammonium Chloride-based Buffer (Sigma, Steinheim, Germany) and cells were counted with the EasyCount™ System (Immunicon). […]
# Samples were acquired on a flow cytometer (BD FACSCanto II) and data analyzed with the FACSDiva software (BD Biosciences).
# Monocytes were identified by their Side/Forward scatter properties, excluding debris and gated as CD3-/CD45R/B220-/Ly-6G-/NK1.1-(Lineage-)/CD11b+ cells. Aβ uptake was assessed by reporting the percentage and Mean Fluorescence Intensity (GeoMean) of positive HiLyte fluor488 Aβ1-42 cells among gated monocytes.
Molecule,Amyloid beta plaque number (APPSwe/PS1 mice),Aβ total plaque loading by immunofluorescence vs PBS control group (APPSwe/PS1 mice),CCL2 level compared to the LPS group ([1]; 2 h after i.p. injection),CXCL-1 level compared to the LPS group ([1]; 2 h after i.p. injection),levels of TNF-α and IL-6 in sera ([1]; 2 h post i.p. injection),levels of TNF-α and IL-6 in sera ([1]; 6 h post i.p. injection),"serum cytokine and chemokine levels compared with LPS-treated animals ([1]; single i.p. injection, 2 and 6 h)",Aβ42 uptake by monocytes compared to PBS group [2]
3-O-desacyl-4′-monophosphoryl lipid A [3D MPL],statistically significant reduction,significant difference,higher,similar,modest increase,essentially abolished,substantially lower,
CCCCCCCCCCC[C@H](CC(=O)N[C@H]1[C@H](OC[C@H](NC(=O)C[C@@H](CCCCCCCCCCC)OCCCCCCCCCC)C(=O)O)O[C@H](CO)[C@@H](OP(=O)(O)O)[C@@H]1OC(=O)C[C@@H](CCCCCCCCCCC)OCCCCCCCCCC)OCCCCCCCCCC [CRX601],,,,,,,,higher amount

# From patent US20130216614A1, “IMMUNOGENIC COMPOSITIONS AND METHODS FOR TREATING NUEROLOGIC DISORDERS” (Glaxosmithkline Biologicals S.A., priority 2010, published 2013)
